According to patent US9464082B2, “Aryl and arylalkyl substituted pyrazolyl and pyrimidinyl tricyclic enones as antioxidant inflammation modulators” (AbbVie Inc., priority 2014, dated 2016):

tested on: IFNγ-Induced NO Production; assay: Nitric Oxide Suppression Assay (Suppression of IFNγ-Induced NO Production); format: cell-based; settings: RAW264.7; RAW 264.7 mouse macrophage cells; 2 hour pre-treatment with compound (3 μM to 0.3 nM, 10 point curve); 20 ng/mL interferon gamma, ~18 hour; Griess detection; n=2-3 in duplicates
How it was run: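 Griess-based absorbance read (520–550 nm) of supernatant after RAW 264.7 mouse macrophages received 10-point compound dilutions (3 μM–0.3 nM, DMSO ≤1%) for 2 h, then 20 ng/mL IFNγ for ~18 h at 37 °C. Signal normalised to IFNγ-only peak; IC50 fitted to mean of n=2-3 duplicates.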

Compound	IC50 [nM]
C[C@@H]1C(=O)C(C#N)=C[C@]2(c3ccccc3)c3n[nH]c(-c4cccc(O)c4)c3CC[C@@H]12 [Example 88, (5aS,6S,9aR)-3-(3-hydroxyphenyl)-6-methyl-7-oxo-9a-phenyl-4,5,5a,6,7,9a-hexahydro-2H-benzo[g]indazole-8-carbonitrile]	20.1
C[C@@H]1C(=O)C(C#N)=C[C@]2(c3ccccc3)c3n[nH]c(-c4cnn(C)c4)c3CC[C@@H]12 [Example 89, (5aS,6S,9aR)-6-methyl-3-(1-methyl-1H-pyrazol-4-yl)-7-oxo-9a-phenyl-4,5,5a,6,7,9a-hexahydro-2H-benzo[g]indazole-8-carbonitrile]	8.18
COc1ccc([C@]23C=C(C#N)C(=O)[C@@H](C)[C@@H]2CCc2c(-c4ccc5[nH]cnc5c4)nc(C)nc23)cc1 [Example 90, (6aS,7S,10aR)-4-(1H-benzimidazol-5-yl)-10a-(4-methoxyphenyl)-2,7-dimethyl-8-oxo-5,6,6a,7,8,10a-hexahydrobenzo[h]quinazoline-9-carbonitrile]	7.32
Cc1nc(-c2ccc3[nH]cnc3c2)c2c(n1)[C@@]1(c3ccc(F)cc3)C=C(C#N)C(=O)[C@@H](C)[C@@H]1CC2 [Example 91, (6aS,7S,10aR)-4-(1H-benzimidazol-5-yl)-10a-(4-fluorophenyl)-2,7-dimethyl-8-oxo-5,6,6a,7,8,10a-hexahydrobenzo[h]quinazoline-9-carbonitrile]	13.6
Cc1nc(-c2cccc3c(Br)n[nH]c23)c2c(n1)[C@@]1(c3ccc(F)cc3)C=C(C#N)C(=O)[C@@H](C)[C@@H]1CC2 [Example 92, (6aS,7S,10aR)-4-(3-bromo-1H-indazol-7-yl)-10a-(4-fluorophenyl)-2,7-dimethyl-8-oxo-5,6,6a,7,8,10a-hexahydrobenzo[h]quinazoline-9-carbonitrile]	31.7
Cc1nc(-c2cccc3cn[nH]c23)c2c(n1)[C@@]1(c3ccc(F)cc3)C=C(C#N)C(=O)[C@@H](C)[C@@H]1CC2 [Example 93, (6aS,7S,10aR)-10a-(4-fluorophenyl)-4-(1H-indazol-7-yl)-2,7-dimethyl-8-oxo-5,6,6a,7,8,10a-hexahydrobenzo[h]quinazoline-9-carbonitrile]	7.27
Cc1nc(-c2c[nH]c(=O)[nH]c2=O)c2c(n1)[C@@]1(c3ccc(F)cc3)C=C(C#N)C(=O)[C@@H](C)[C@@H]1CC2 [Example 94, (6aS,7S,10aR)-4-(2,4-dioxo-1,2,3,4-tetrahydropyrimidin-5-yl)-10a-(4-fluorophenyl)-2,7-dimethyl-8-oxo-5,6,6a,7,8,10a-hexahydrobenzo[h]quinazoline-9-carbonitrile]	639
C[C@@H]1C(=O)C(C#N)=C[C@]2(c3cccc(C(=O)Nc4ccccc4)c3)c3ncncc3CC[C@@H]12 [Example 95, 3-[(6aS,7S,10aR)-9-cyano-7-methyl-8-oxo-6,6a,7,8-tetrahydrobenzo[h]quinazolin-10a(5H)-yl]-N-phenylbenzamide]	15.5
CCCNC(=O)c1cccc([C@]23C=C(C#N)C(=O)[C@@H](C)[C@@H]2CCc2cncnc23)c1 [Example 96, 3-[(6aS,7S,10aR)-9-cyano-7-methyl-8-oxo-6,6a,7,8-tetrahydrobenzo[h]quinazolin-10a(5H)-yl]-N-propylbenzamide]	78.2
C[C@@H]1C(=O)C(C#N)=C[C@]2(c3ccccc3)c3nn(C)c(-c4ccnnc4)c3CC[C@@H]12 [Example 97, (5aS,6S,9aR)-2,6-dimethyl-7-oxo-9a-phenyl-3-(pyridazin-4-yl)-4,5,5a,6,7,9a-hexahydro-2H-benzo[g]indazole-8-carbonitrile]	15
COC(=O)n1cc(-c2nc(C)nc3c2CC[C@H]2[C@H](C)C(=O)C(C#N)=C[C@]32c2ccccc2)cn1 [Example 98, methyl 4-[(6aS,7S,10aR)-9-cyano-2,7-dimethyl-8-oxo-10a-phenyl-5,6,6a,7,8,10a-hexahydrobenzo[h]quinazolin-4-yl]-1H-pyrazole-1-carboxylate]	1.5
COC(=O)c1cccc([C@]23C=C(C#N)C(=O)[C@@H](C)[C@@H]2CCc2cnc(-c4ccccc4)nc23)c1 [Example 99, methyl 3-[(6aS,7S,10aR)-9-cyano-7-methyl-8-oxo-2-phenyl-6,6a,7,8-tetrahydrobenzo[h]quinazolin-10a(5H)-yl]benzoate]	23.4
C[C@@H]1C(=O)C(C#N)=C[C@]2(c3cccc(C(=O)O)c3)c3nc(-c4ccccc4)ncc3CC[C@@H]12 [Example 100, 3-[(6aS,7S,10aR)-9-cyano-7-methyl-8-oxo-2-phenyl-6,6a,7,8-tetrahydrobenzo[h]quinazolin-10a(5H)-yl]benzoic acid]	426
COC(=O)c1ccc(-c2ncc3c(n2)[C@@]2(c4cccc(C(=O)OC)c4)C=C(C#N)C(=O)[C@@H](C)[C@@H]2CC3)cc1 [Example 101, methyl 3-[(6aS,7S,10aR)-9-cyano-2-[4-(methoxycarbonyl)phenyl]-7-methyl-8-oxo-6,6a,7,8-tetrahydrobenzo[h]quinazolin-10a(5H)-yl]benzoate]	45.6
COc1nc(Cl)nc2c1CC[C@H]1[C@H](C)C(=O)C(C#N)=C[C@]21c1ccccc1 [Example 102, (6aS,7S,10aR)-2-chloro-4-methoxy-7-methyl-8-oxo-10a-phenyl-5,6,6a,7,8,10a-hexahydrobenzo[h]quinazoline-9-carbonitrile]	3.97
COc1nc(OC)c2c(n1)[C@@]1(c3ccccc3)C=C(C#N)C(=O)[C@@H](C)[C@@H]1CC2 [Example 103, (6aS,7S,10aR)-2,4-dimethoxy-7-methyl-8-oxo-10a-phenyl-5,6,6a,7,8,10a-hexahydrobenzo[h]quinazoline-9-carbonitrile]	4.4
C[C@@H]1C(=O)C(C#N)=C[C@]2(c3cccc(C(=O)O)c3)c3nc(-c4ccc(C(=O)O)cc4)ncc3CC[C@@H]12 [Example 104, 3-[(6aS,7S,10aR)-2-(4-carboxyphenyl)-9-cyano-7-methyl-8-oxo-6,6a,7,8-tetrahydrobenzo[h]quinazolin-10a(5H)-yl]benzoic acid]	924
C[C@@H]1C(=O)C(C#N)=C[C@]2(c3ccccc3)C3=NN(C)[C@@H](c4ccccc4)[C@H]3CC[C@@H]12 [Example 105, (3R,3aR,5aS,6S,9aR)-2,6-dimethyl-7-oxo-3,9a-diphenyl-3,3a,4,5,5a,6,7,9a-octahydro-2H-benzo[g]indazole-8-carbonitrile]	34.5
C[C@@H]1C(=O)C(C#N)=C[C@]2(c3ccccc3)c3n[nH]c(-c4ccc(N)nc4)c3CC[C@@H]12 [Example 106, (5aS,6S,9aR)-3-(6-aminopyridin-3-yl)-6-methyl-7-oxo-9a-phenyl-4,5,5a,6,7,9a-hexahydro-2H-benzo[g]indazole-8-carbonitrile]	8.77
Cc1nc(-c2ccc3nccn3c2)c2c(n1)[C@@]1(c3ccccc3)C=C(C#N)C(=O)[C@@H](C)[C@@H]1CC2 [Example 107, (6aS,7S,10aR)-4-(imidazo[1,2-a]pyridin-6-yl)-2,7-dimethyl-8-oxo-10a-phenyl-5,6,6a,7,8,10a-hexahydrobenzo[h]quinazoline-9-carbonitrile]	10.7
Cc1nc(-c2ccc(O)cc2)c2c(n1)[C@@]1(c3ccccc3)C=C(C#N)C(=O)[C@@H](C)[C@@H]1CC2 [Example 108, (6aS,7S,10aR)-4-(4-hydroxyphenyl)-2,7-dimethyl-8-oxo-10a-phenyl-5,6,6a,7,8,10a-hexahydrobenzo[h]quinazoline-9-carbonitrile]	3.63
